Laboratory results from patent US9375496B2, “Halogenated compounds for cancer imaging and treatment and methods for their use” (The University of British Columbia, priority 2013, dated 2016).

Assays:
[1] = biological target: T1, progesterone receptor-beta (PRβ) (Homo sapiens, UniProt P06401); assay: PRE-luciferase reporter assay in LNCaP cells cotransfected with full-length human PRβ; type: cell-based; conditions: 1.9 μM 8d, 10 nM progesterone, 24 h, LNCaP cells (FIG. 2B)
T1 construct: expression plasmids for full-length human PRβ; expressed in transfected cells; host or cells: LNCaP
T1 sequence (P06401 1-933): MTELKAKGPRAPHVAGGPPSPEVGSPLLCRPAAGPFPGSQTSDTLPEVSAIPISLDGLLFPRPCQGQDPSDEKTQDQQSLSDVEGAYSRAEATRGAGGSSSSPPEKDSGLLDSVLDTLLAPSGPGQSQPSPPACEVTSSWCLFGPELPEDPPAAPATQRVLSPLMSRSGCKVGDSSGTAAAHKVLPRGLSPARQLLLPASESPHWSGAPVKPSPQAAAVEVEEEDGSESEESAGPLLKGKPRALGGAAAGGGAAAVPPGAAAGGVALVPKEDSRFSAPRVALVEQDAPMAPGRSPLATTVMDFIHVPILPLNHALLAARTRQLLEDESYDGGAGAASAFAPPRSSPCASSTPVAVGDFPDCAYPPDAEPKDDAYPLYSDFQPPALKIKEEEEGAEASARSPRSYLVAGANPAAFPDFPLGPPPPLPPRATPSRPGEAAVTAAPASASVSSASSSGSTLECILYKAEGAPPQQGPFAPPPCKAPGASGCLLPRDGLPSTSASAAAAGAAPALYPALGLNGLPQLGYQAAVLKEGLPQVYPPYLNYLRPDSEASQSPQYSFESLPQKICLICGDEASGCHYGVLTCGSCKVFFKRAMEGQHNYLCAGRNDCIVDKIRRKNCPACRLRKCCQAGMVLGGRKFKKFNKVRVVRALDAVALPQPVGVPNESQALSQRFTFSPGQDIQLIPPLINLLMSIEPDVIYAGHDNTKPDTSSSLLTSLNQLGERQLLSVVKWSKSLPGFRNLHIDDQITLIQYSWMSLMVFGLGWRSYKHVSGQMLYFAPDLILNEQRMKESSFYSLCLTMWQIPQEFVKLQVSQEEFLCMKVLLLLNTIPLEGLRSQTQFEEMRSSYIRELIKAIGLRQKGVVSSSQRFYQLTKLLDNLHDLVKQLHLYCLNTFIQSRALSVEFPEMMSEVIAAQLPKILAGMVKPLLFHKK
Method: (§1) To assess specificity for the AR, parallel experiments were performed in LNCaP cells with endogenous AR and ectopic expression of other closely related human hormone receptors such as the progesterone receptor-beta (PRβ), glucocorticoid receptor (GR) and estrogen receptor-α (ER).
LNCaP cells were cotransfected with the expression plasmids for full-length human PRβ and the relative reporter (PRE-luciferase) for 24 h, and then treated with DMSO, 5 μM MDV3100, 25 μM Z, or 1.9 μM 8d with or without 10 nM progesterone for 24 h (FIG. 2B). Compound 8d had no effect on the transcriptional activity of closely related PRβ.

[2] = biological target: T2, glucocorticoid receptor (GR) (Homo sapiens, UniProt P04150); assay: GRE-luciferase reporter assay in LNCaP cells cotransfected with full-length human GR; type: cell-based; conditions: 1.9 μM 8d, 10 nM dexamethasone, 48 h, LNCaP cells (FIG. 2C)
T2 construct: expression plasmids for full-length human GR; expressed in transfected cells; host or cells: LNCaP
T2 sequence (P04150 1-777): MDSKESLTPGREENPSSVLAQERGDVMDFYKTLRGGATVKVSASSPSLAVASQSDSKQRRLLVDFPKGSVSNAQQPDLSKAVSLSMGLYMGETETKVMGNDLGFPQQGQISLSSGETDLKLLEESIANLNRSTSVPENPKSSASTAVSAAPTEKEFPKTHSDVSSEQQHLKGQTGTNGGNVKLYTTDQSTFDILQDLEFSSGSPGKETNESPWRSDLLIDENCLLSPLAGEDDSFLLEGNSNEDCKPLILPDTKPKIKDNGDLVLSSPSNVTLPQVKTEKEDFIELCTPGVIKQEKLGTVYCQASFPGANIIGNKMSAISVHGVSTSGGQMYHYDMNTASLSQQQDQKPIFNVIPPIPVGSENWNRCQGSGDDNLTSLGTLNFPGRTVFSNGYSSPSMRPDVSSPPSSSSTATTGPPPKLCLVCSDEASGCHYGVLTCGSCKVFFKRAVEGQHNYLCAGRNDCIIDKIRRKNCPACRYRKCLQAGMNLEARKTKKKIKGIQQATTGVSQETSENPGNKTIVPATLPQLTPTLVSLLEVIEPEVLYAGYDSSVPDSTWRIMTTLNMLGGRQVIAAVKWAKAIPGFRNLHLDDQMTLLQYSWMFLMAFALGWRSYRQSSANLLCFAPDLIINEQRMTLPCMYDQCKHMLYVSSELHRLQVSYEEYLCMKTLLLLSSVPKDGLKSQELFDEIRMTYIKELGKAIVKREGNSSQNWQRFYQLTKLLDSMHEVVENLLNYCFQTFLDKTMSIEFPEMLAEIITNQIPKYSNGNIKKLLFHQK
Method: as §1

With `CC(C)(c1ccc(OC[C@H](O)CO)cc1)c1ccc(OC[C@H](O)CCl)c(I)c1` [Compound 8d, (R)-3-(4-(2-(4-((S)-3-chloro-2-hydroxypropoxy)-3-iodophenyl)propan-2-yl)phenoxy)propane-1,2-diol] the “transcriptional activity of PRβ (PRE-luciferase)” value [1] was “no effect” and the “GR activity (GRE-luciferase)” value [2] was “not inhibited”.
